Source: patent US8557816B2, “Aurora kinase modulators and method of use” (Amgen Inc., priority 2007, dated 2013)
Read-outs that look alike come from different tables or passages of the source.

What was measured:
AuroraA-TPX2 = biological target: T1, AuroraA-TPX2 (Homo sapiens, UniProt O14965); assay: AuroraA-TPX2 Homogeneous Time Resolved Fluorescent (HTRF) kinase assay; format: biochemical
T1 construct: 20 μL of AuroraA-TPX2 KD GST for a final volume of about 41 μL; GST
T1 sequence (O14965 133-383 limits assumed): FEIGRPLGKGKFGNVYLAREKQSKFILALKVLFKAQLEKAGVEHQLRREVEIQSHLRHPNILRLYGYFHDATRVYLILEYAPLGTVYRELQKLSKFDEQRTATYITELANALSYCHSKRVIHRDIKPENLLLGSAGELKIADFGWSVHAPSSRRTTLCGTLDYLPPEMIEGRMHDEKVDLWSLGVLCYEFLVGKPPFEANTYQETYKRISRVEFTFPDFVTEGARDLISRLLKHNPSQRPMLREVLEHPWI
T1 sequence (Q9ULW0 1-43 partner limits assumed): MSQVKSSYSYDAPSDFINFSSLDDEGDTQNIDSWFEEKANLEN
In short: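 HTRF read-out (Eu 615 nm to APC 655 nm) of phosphorylated biotin-PLK, detected with 0.02 nM europium anti-phosphoPLK antibody and 0.0005 mg/mL SA-APC after overnight equilibration.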

AuroraB = biological target: T2, AuroraB (Homo sapiens, UniProt Q96GD4); assay: AuroraB Homogeneous Time Resolved Fluorescent (HTRF) kinase assay; format: biochemical
T2 construct: 20 μL of AuroraB FL H is for a final volume of 41 μL; His
T2 sequence (Q96GD4 whole entry): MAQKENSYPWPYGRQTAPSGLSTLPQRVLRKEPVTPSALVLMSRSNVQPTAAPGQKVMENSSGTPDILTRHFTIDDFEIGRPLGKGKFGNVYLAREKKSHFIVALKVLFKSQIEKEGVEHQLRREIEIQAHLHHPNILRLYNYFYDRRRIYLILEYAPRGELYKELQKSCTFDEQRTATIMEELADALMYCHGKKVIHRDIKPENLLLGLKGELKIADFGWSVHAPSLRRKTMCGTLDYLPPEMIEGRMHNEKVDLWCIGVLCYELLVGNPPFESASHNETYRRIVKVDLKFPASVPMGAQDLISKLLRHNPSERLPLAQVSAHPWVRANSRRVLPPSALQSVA
In short: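 Read-out is time-resolved FRET between europium anti-phospho-H3 antibody and streptavidin-APC, added in EDTA buffer to stop the reaction and equilibrated about 60 min (ex 320, em 615 and 655 nm). Preceding reaction: ~90 min, full-length enzyme, ATP, 0.1 μM biotin-Histone H3 substrate, Mg/Mn HEPES buffer pH 7.5.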

[1] = average, read-out: AurA_IC50_IP (uM Avg)
[2] = average, read-out: AurB_IC50_IP (uM Avg)

| Structure (SMILES) | IC50 (AuroraA-TPX2; [1]) [µM] | IC50 (AuroraB; [2]) [µM] | IC50 (AuroraA-TPX2; given as class symbol, read-out: AurA_IC50_IP (class symbol)) [µM] | IC50 (AuroraB; given as class symbol, read-out: AurB_IC50_IP (class symbol)) [µM] |
| --- | --- | --- | --- | --- |
| COc1cnc2c(Sc3ccc(Nc4nnc(-c5cc(C)cs5)c5ccccc45)cc3)ccnc2c1 [compound 271, N-(4-(7-methoxy-1,5-naphthyridin-4-ylthio)phenyl)-4-(4-methylthiophen-2-yl)phthalazin-1-amine] | 0.066 | 0.024 |  |  |
| c1ccc(-c2nnc(Nc3ccc(Oc4ncnc5[nH]ccc45)cc3)c3ccccc23)cc1 [compound 273, N-(4-(7H-pyrrolo[2,3-d]pyrimidin-4-yloxy)phenyl)-4-phenylphthalazin-1-amine] | 1.66 | 0.039 |  |  |
| CCc1cc(-c2ccccc2)nnc1Nc1ccc(Sc2ccnc3cc(OC)cnc23)cc1 [compound 274, 4-ethyl-N-(4-(7-methoxy-1,5-naphthyridin-4-ylthio)phenyl)-6-phenylpyridazin-3-amine] | 0.066 | 0.004 |  |  |
| CCc1cc(-c2ccc(Cl)cc2)nnc1Nc1ccc(Oc2ccnc3cc(OC)cnc23)nc1 [compound 275, 6-(4-chlorophenyl)-4-ethyl-N-(6-(7-methoxy-1,5-naphthyridin-4-yloxy)pyridin-3-yl)pyridazin-3-amine] | 0.156 | 0.011 |  |  |
| Fc1cc(F)c2c(Oc3ccc(Nc4nnc(-c5ccccc5)c5ccccc45)cc3)ccnc2c1 [compound 276, N-(4-(5,7-difluoroquinolin-4-yloxy)phenyl)-4-phenylphthalazin-1-amine] | 0.67 | 0.018 |  |  |
| Cc1nc(-c2nnc(Nc3ccc(Oc4ccnc5cc(C#N)ccc45)cc3)c3ccccc23)sc1C [compound 277, 4-((4-((4-(4,5-dimethyl-1,3-thiazol-2-yl)-1-phthalazinyl)amino)phenyl)oxy)-7-quinolinecarbonitrile] | 0.065 | 0.007 |  |  |
| COc1ccc2nccc(Oc3ccc(Nc4nnc(-c5ccc(Cl)cn5)c5ccccc45)cc3)c2c1 [compound 278, 4-(5-chloro-2-pyridinyl)-N-(4-((6-(methyloxy)-4-quinolinyl)oxy)phenyl)-1-phthalazinamine] | 0.082 | 0.004 |  |  |
| c1ccc2c(-c3ccc4c(c3)OCO4)nnc(Nc3ccc(Oc4ccnc5ccsc45)cc3)c2c1 [compound 279, 4-(1,3-benzodioxol-5-yl)-N-(4-(thieno[3,2-b]pyridin-7-yloxy)phenyl)-1-phthalazinamine] | 0.078 | 0.001 |  |  |
| COc1cnc2c(Oc3ccc(Nc4nnc(-c5cnc6[nH]ccc6c5)c5ccccc45)cc3)ccnc2c1 [compound 280, N-(4-((7-(methyloxy)-1,5-naphthyridin-4-yl)oxy)phenyl)-4-(1H-pyrrolo[2,3-b]pyridin-5-yl)-1-phthalazinamine] | 0.062 | 0.002 |  |  |
| COc1cnc2c(Oc3ccc(Nc4nnc(-c5ccccc5)c(C)c4C)cc3)ccnc2c1 [compound 281, 4,5-dimethyl-N-(4-((7-(methyloxy)-1,5-naphthyridin-4-yl)oxy)phenyl)-6-phenyl-3-pyridazinamine] | 0.696 | 0.019 |  |  |
| COc1cnc2c(Oc3ccc(Nc4nnc(-c5ccnc(Cl)c5)c5ccccc45)cc3)ccnc2c1 [compound 283, 4-(2-chloro-4-pyridinyl)-N-(4-((7-(methyloxy)-1,5-naphthyridin-4-yl)oxy)phenyl)-1-phthalazinamine] | 0.1 | 0.01 |  |  |
| Cc1noc(-c2cc3nccc(Oc4ccc(Nc5nnc(-c6ccc(Cl)cc6)c6ccccc56)cc4)c3s2)n1 [compound 286, 4-(4-chlorophenyl)-N-(4-((2-(3-methyl-1,2,4-oxadiazol-5-yl)thieno[3,2-b]pyridin-7-yl)oxy)phenyl)-1-phthalazinamine] | 0.087 | 0.022 |  |  |
| C#Cc1ccc(-c2nnc(Nc3ccc(Oc4ccnc5cc(OC)cnc45)cc3)c3ccccc23)cc1 [compound 287, 4-(4-ethynylphenyl)-N-(4-((7-(methyloxy)-1,5-naphthyridin-4-yl)oxy)phenyl)-1-phthalazinamine] | 0.061 | 0.013 |  |  |
| Cc1noc(-c2cc3nccc(Oc4ccc(Nc5nnc(-c6ccccc6)c6ccccc56)cc4)c3s2)n1 [compound 288, N-(4-((2-(3-methyl-1,2,4-oxadiazol-5-yl)thieno[3,2-b]pyridin-7-yl)oxy)phenyl)-4-phenyl-1-phthalazinamine] | 0.302 | 0.039 |  |  |
| Cc1csc(-c2nnc(Nc3ccc(Oc4ccnc5ccsc45)cc3)c3ccccc23)c1 [compound 289, 4-(4-methyl-2-thienyl)-N-(4-(thieno[3,2-b]pyridin-7-yloxy)phenyl)-1-phthalazinamine] | 0.068 | 0.011 |  |  |
| Clc1ccc(-c2nnc(Nc3ccc(Oc4ncnc5[nH]ccc45)cc3)c3ccccc23)cc1 [compound 290, 4-(4-chlorophenyl)-N-(4-(7H-pyrrolo[2,3-d]pyrimidin-4-yloxy)phenyl)-1-phthalazinamine] | 0.35 | 0.009 |  |  |
| COc1ccc2nccc(Sc3ccc(Nc4nnc(-c5ccccc5)c5ccccc45)cc3)c2c1 [compound 292, N-(4-((6-(methyloxy)-4-quinolinyl)thio)phenyl)-4-phenyl-1-phthalazinamine] | 0.144 | 0.011 |  |  |
| FC1(F)Oc2ccc(-c3nnc(Nc4ccc(Oc5ccnc6ccsc56)cc4)c4ccccc34)cc2O1 [compound 293, 4-(2,2-difluoro-1,3-benzodioxol-5-yl)-N-(4-(thieno[3,2-b]pyridin-7-yloxy)phenyl)-1-phthalazinamine] | 0.266 | 0.006 |  |  |
| c1ccc(-c2nnc(Nc3ccc(Sc4ccnc5ccccc45)cc3)c3ccccc23)cc1 [compound 294, 4-phenyl-N-(4-(4-quinolinylthio)phenyl)-1-phthalazinamine] |  |  | < 0.1 | < 0.1 |
| CCc1cc(N2CC[C@H]3CCCC[C@@H]3C2)nnc1Nc1ccc(Oc2ccnc3cc(OC)cnc23)cc1 [compound 300, 4-ethyl-N-(4-((7-(methyloxy)-1,5-naphthyridin-4-yl)oxy)phenyl)-6-((4aR,8aS)-octahydro-2(1H)-isoquinolinyl)-3-pyridazinamine] | 0.112 | 0.067 |  |  |

More lines, in order of falling IC50 (AuroraA-TPX2; [1]), values ahead:

| IC50 (AuroraA-TPX2; [1]) [µM] | IC50 (AuroraB; [2]) [µM] | IC50 (AuroraA-TPX2; given as class symbol, read-out: AurA_IC50_IP (class symbol)) [µM] | IC50 (AuroraB; given as class symbol, read-out: AurB_IC50_IP (class symbol)) [µM] | Structure (SMILES) |
| --- | --- | --- | --- | --- |
| 0.036 | 0.031 |  |  | COc1ccc2nccc(Sc3ccc(Nc4nnc(-c5ccc(Cl)cc5)c5ccccc45)cc3)c2c1 [compound 297, 4-(4-chlorophenyl)-N-(4-(6-methoxyquinolin-4-ylthio)phenyl)phthalazin-1-amine] |
| 0.035 | 0.063 |  |  | Clc1ccc(-c2nnc(Nc3ccc(Sc4ccnc5cc(Br)cnc45)cc3)c3ccccc23)cc1 [compound 301, N-(4-((7-bromo-1,5-naphthyridin-4-yl)thio)phenyl)-4-(4-chlorophenyl)-1-phthalazinamine] |
| 0.033 | 0.001 |  |  | c1ccc2c(-c3ccc4c(c3)CCO4)nnc(Nc3ccc(Oc4ccnc5ccsc45)cc3)c2c1 [compound 272, 4-(2,3-dihydrobenzofuran-5-yl)-N-(4-(thieno[3,2-b]pyridin-7-yloxy)phenyl)phthalazin-1-amine] |
| 0.031 | 0.01 |  |  | COc1cnc2c(Oc3ccc(Nc4nnc(-c5ccc6c(c5)OC(F)(F)O6)c5ccccc45)cc3)ccnc2c1 [compound 291, 4-(2,2-difluoro-1,3-benzodioxol-5-yl)-N-(4-((7-(methyloxy)-1,5-naphthyridin-4-yl)oxy)phenyl)-1-phthalazinamine] |
| 0.029 | 0.002 |  |  | c1ccc(-c2nnc(Nc3ccc(Sc4ccnc5cccnc45)cc3)c3ccccc23)cc1 [compound 285, N-(4-(1,5-naphthyridin-4-ylthio)phenyl)-4-phenyl-1-phthalazinamine] |
| 0.019 | 0.007 |  |  | COc1cnc2c(Oc3ccc(Nc4nnc(-c5ccc(Cl)cc5)c5ccccc45)cc3F)ccnc2c1 [compound 284, 4-(4-chlorophenyl)-N-(3-fluoro-4-((7-(methyloxy)-1,5-naphthyridin-4-yl)oxy)phenyl)-1-phthalazinamine] |
| 0.018 | 0.015 |  |  | COc1cnc2c(Oc3ccc(Nc4nnc(-c5cccc(C)c5)c5ccccc45)cc3)ccnc2c1 [compound 299, N-(4-((7-(methyloxy)-1,5-naphthyridin-4-yl)oxy)phenyl)-4-(3-methylphenyl)-1-phthalazinamine] |
| 0.014 | 0.023 |  |  | COc1cnc2c(Oc3ccc(Nc4nnc(-c5cc(Cl)cs5)c5ccccc45)cc3)ccnc2c1 [compound 298, 4-(4-chloro-2-thienyl)-N-(4-((7-(methyloxy)-1,5-naphthyridin-4-yl)oxy)phenyl)-1-phthalazinamine] |
| 0.013 | 0.019 |  |  | COc1cnc2c(Sc3ccc(Nc4nnc(-c5ccc(Cl)cn5)c5ccccc45)cc3)ccnc2c1 [compound 304, 4-(5-chloro-2-pyridinyl)-N-(4-((7-(methyloxy)-1,5-naphthyridin-4-yl)thio)phenyl)-1-phthalazinamine] |
| 0.011 | 0.03 |  |  | COc1cnc2c(Oc3ccc(Nc4nnc(-c5ccc6c(c5)OCO6)c5ccccc45)cc3)ccnc2c1 [compound 306, 4-(1,3-benzodioxol-5-yl)-N-(4-((7-(methyloxy)-1,5-naphthyridin-4-yl)oxy)phenyl)-1-phthalazinamine] |
